Values of other authors in patent US20200338088A1, “Methods for Treating Neutrophilic Dermatoses with SYK Inhibitors” (Rush University Medical Center, priority 2018, published 2020).

Test system: rat collagen-induced arthritis model
Conditions: daily oral dose of 10 mg/kg (10 μg/g), after 7 days

c1cn2cc(-c3ccc4cn[nH]c4c3)nc(Nc3ccc(N4CCOCC4)cc3)c2n1 [GS-9973, 6-(1H-indazol-6-yl)-N-(4-morpholin-4-ylphenyl)imidazo[1,2-a]pyrazin-8-amine]
ankle inflammation: significantly inhibited ankle inflammation
